Reference: patent publication US12195482B1 (Arcus Biosciences, Inc., priority 2022, dated 2025)

Key:
[1] = biological target: T1, p-AXL (Homo sapiens, UniProt P30530); assay: Axl phosphorylation inhibition ELISA in HEK293T cells transfected with NanoLuc-tagged AXL; format: cell-based; conditions: 1 h compound incubation, media (OptiMEM)
T1 construct: expressed in transfected cells; host or cells: HEK293T
T1 sequence (P30530 26-894): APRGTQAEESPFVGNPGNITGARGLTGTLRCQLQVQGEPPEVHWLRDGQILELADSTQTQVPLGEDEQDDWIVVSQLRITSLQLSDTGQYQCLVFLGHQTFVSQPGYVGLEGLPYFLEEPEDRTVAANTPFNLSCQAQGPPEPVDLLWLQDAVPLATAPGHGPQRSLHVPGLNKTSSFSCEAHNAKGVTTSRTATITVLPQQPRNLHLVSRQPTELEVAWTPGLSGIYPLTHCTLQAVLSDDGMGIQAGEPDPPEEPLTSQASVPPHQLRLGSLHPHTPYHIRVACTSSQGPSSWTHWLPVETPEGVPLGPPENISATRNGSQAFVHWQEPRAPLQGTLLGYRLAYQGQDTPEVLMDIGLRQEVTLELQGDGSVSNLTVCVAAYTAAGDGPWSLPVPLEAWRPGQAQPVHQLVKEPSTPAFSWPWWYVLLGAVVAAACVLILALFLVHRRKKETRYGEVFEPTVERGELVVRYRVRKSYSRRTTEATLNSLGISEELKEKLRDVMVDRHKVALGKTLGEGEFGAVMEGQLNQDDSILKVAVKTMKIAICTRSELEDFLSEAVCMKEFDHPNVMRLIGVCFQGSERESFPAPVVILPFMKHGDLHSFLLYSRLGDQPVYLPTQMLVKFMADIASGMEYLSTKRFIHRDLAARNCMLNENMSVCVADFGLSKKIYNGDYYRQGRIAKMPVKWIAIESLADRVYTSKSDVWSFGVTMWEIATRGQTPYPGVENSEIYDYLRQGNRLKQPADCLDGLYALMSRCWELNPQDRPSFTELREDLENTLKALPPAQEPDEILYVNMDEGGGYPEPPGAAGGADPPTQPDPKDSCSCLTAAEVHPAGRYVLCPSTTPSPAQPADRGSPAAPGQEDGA
Description: [formula] Measurement of Axl Phosphorylation Inhibition
The dose-response assays were performed in S-Bio PrimeSurface® 3D culture: Ultra-low Attachment Plates: 384 well, U bottom (#MS-9384UZ) containing 400 nL of 22 serial 2-fold compound dilutions using Bravo and Echo. ELISA assay was performed on Pierce™ streptavidin coated high capacity 384-well white plates (Thermofisher Cat #15505). The plates were coated overnight at 4° C. with 50 μl/well of biotinlyated phospho-tyrosine mouse mAb (Cell Signaling Technology, 9417s).
HEK293T cells were grown in DMEM containing 10% FBS, 1% Pen/Strep, 1% G-Max. A day before the assay, cells were transiently transfected with 6.8 μg of NanoLuc-tagged AXL plasmid DNA and 8 μg of carrier DNA using FuGENE® HD Transfection Reagent (Promega) according to manufacturer's instructions. On the day of the assay, transfected cells were harvested and resuspended in OptiMEM. 70,000 cells/well were added to the compounds containing assay plates. After a gentle mix and a short spin, the plates were incubated at 37° C. After 1 h, the cells were lysed followed by a brief centrifugation and 30 min of shaking at 300 rpm. Meanwhile, the antibody coated plates were brought to room temperature and then were washed ten times in PBS with 0.05% Tween 20 (ELISA-wash buffer). 50 μl/well of cell lysate was transferred to the ELISA plates and shaken for 2 hours. After washing again with the ELISA wash buffer, the samples were diluted with 25 μl of PBS. The captured NanoLuc tagged p-AXL was detected using Nano-Glo® Luciferase Assay System (Promega) and manufacturer's instruction. The luminescence signal was measured using Envision plate reader. IC50 values were determined by fitting the data to a standard 4-parameter logistic equation.

[2] = biological target: T2, Axl (Homo sapiens, UniProt P30530); assay: Biochemical potency, HTRF KinEASE-TK kinase assay; design: purchased Invitrogen; conditions: 5 nM AXL, 700 μM ATP
T2 sequence (P30530 26-894): T1 sequence (P30530 26-894)
Description: Measurement of Biochemical Compound Potency of Axl Inhibitors
Purified recombinant human AXL, TYRO3 and MER proteins were purchased from Invitrogen™. 10 nM AXL, 2 nM TYRO3 or MER were incubated with varying concentrations of compounds in 50 mM HEPES, pH 7.4, 10 mM MgCl2, 0.01% BSA, 1 mM DTT and 2% DMSO in a total volume of 20 μl in a 384-well microplate (Corning™ #3640) at RT for 1 h. The AXL, TYRO3 and MER enzymatic reaction was initiated by transferring 10 μl of enzyme and compound mixture into 10 μl of 1.6 μM TK Substrate-biotin (HTRF® KinEASE-TK kit, Cisbio) and 1400 μM ATP pre-incubated in 50 mM HEPES, pH 7.4, 10 mM MgCl2, 0.01% BSA, 1 mM DTT in a 384-well microplate (Corning™ #3640) at RT, giving the final reaction conditions: 5 nM AXL, 1 nM TYRO3 or MER, 800 nM TK Substrate-biotin and 700 μM ATP in 50 mM HEPES, pH 7.4, 10 mM MgCl2, 0.01% BSA, 1 mM DTT and 1% DMSO with varying concentrations of compounds. Following 2 h incubation at RT, the AXL, TYRO3 and MER enzymatic reaction was stopped by transfer of 10 μl of reaction into 10 μl of detection mix (400 nM Streptavidin-XL665, 200-fold dilution TK Antibody-Cryptate and detection buffer, HTRF® KinEASE-TK kit, Cisbio) in a white 384-well microplate (Perkin Elmer, OptiPlate 384). After 1 h incubation at RT, the plate was put into a plate reader (Evision) to read at 665/620 nm (acceptor/donor) for HTRF. The value of the DMSO blank (MIN inhibition=100% activity) was used as a negative control. The positive control was established by adding 5 μl of enzyme and DMSO mixture into 10 μl of detection mix followed by addition of 5 μl of TK Substrate-biotin and ATP mixture (MAX inhibition=0% activity). To calculate the percent activity, Equation 1 was used. Ratio665/620 is the value at a given compound concentration: […]

Row | Compound | IC50 [1] | IC50 [2]
1 | Cc1ccc(C)c(-c2ccc(-c3c[nH]c4ncc(-c5ccc6c(c5)CC[C@@H](N5CCCC5)CC6)cc34)cc2)n1 [Example 148, 3,6-Dimethyl-2-(4-{5-[(7S)-7-(pyrrolidin-1-yl)-6,7,8,9-tetrahydro-5H-benzo[7]annulen-2-yl]-1H-pyrrolo[2,3-b]pyridin-3-yl}phenyl)pyridine] | 100 to 1000 nM | < 100 nM
2 | Cc1ccc(C#N)c(-c2ccc(-c3n[nH]c4ncc(-c5ccc6c(c5)CC[C@@H](N5C7COCC5C7)CC6)cc34)cc2)n1 [Example 70, 6-Methyl-2-(4-{5-[(7S)-7-{3-oxa-6-azabicyclo[3.1.1]heptan-6-yl}-6,7,8,9-tetrahydro-5H-benzo[7]annulen-2-yl]-1H-pyrazolo[3,4-b]pyridin-3-yl}phenyl)pyridine-3-carbonitrile] | < 100 nM | < 100 nM
3 | Cc1ccc(C)c(-c2ccc(-c3n[nH]c4ncc(-c5ccc6c(c5)CC[C@@H](N5C7COCC5C7)CC6)cc34)cc2C)n1 [Example 185, 6-[(7S)-2-{3-[4-(3,6-Dimethylpyridin-2-yl)-3-methylphenyl]-1H-pyrazolo[3,4-b]pyridin-5-yl}-6,7,8,9-tetrahydro-5H-benzo[7]annulen-7-yl]-3-oxa-6-azabicyclo[3.1.1]heptane] | 100 to 1000 nM | < 100 nM
4 | Cc1cccnc1-c1cnc(-c2c[nH]c3ncc(-c4ccc5c(c4)CC[C@@H](N4C6COCC4C6)CC5)cc23)cn1 [Example 184, 6-[(7S)-2-{3-[5-(3-Methylpyridin-2-yl)pyrazin-2-yl]-1H-pyrrolo[2,3-b]pyridin-5-yl}-6,7,8,9-tetrahydro-5H-benzo[7]annulen-7-yl]-3-oxa-6-azabicyclo[3.1.1]heptane] | < 100 nM | < 100 nM
5 | COc1ccnc(-c2ccc(-c3n[nH]c4ncc(-c5ccc6c(c5)CC[C@@H](N5C7COCC5C7)CC6)cc34)cc2)c1OC [Example 152, 6-[(7S)-2-{3-[4-(3,4-Dimethoxypyridin-2-yl)phenyl]-1H-pyrazolo[3,4-b]pyridin-5-yl}-6,7,8,9-tetrahydro-5H-benzo[7]annulen-7-yl]-3-oxa-6-azabicyclo[3.1.1]heptane] | < 100 nM | < 100 nM
6 | Cc1cnc(C)c(-c2ccc(-c3n[nH]c4ncc(-c5ccc6c(c5)CC[C@@](C)(N5CCC[C@H]5C)CC6)cc34)cc2)n1 [Example 64, 2,5-Dimethyl-3-(4-{5-[(7S)-7-methyl-7-[(2R)-2-methylpyrrolidin-1-yl]-6,7,8,9-tetrahydro-5H-benzo[7]annulen-2-yl]-1H-pyrazolo[3,4-b]pyridin-3-yl}phenyl)pyrazine] | < 100 nM | < 100 nM
7 | Cc1cccc(C#N)c1-c1ccc(-c2c[nH]c3ncc(-c4ccc5c(c4)CC[C@@H](N4C6COCC4C6)CC5)cc23)nc1 [Example 197, 3-Methyl-2-(6-{5-[(7S)-7-{3-oxa-6-azabicyclo[3.1.1]heptan-6-yl}-6,7,8,9-tetrahydro-5H-benzo[7]annulen-2-yl]-1H-pyrrolo[2,3-b]pyridin-3-yl}pyridin-3-yl)benzonitrile] | 100 to 1000 nM | < 100 nM
8 | c1cc2c(c(-c3ccc(-c4c[nH]c5ncc(-c6ccc7c(c6)CC[C@@H](N6C8COCC6C8)CC7)cc45)cc3)n1)OCCO2 [Example 194, 6-[(7S)-2-[3-(4-{2H,3H-[1,4]Dioxino[2,3-c]pyridin-5-yl}phenyl)-1H-pyrrolo[2,3-b]pyridin-5-yl]-6,7,8,9-tetrahydro-5H-benzo[7]annulen-7-yl]-3-oxa-6-azabicyclo[3.1.1]heptane] | < 100 nM | < 100 nM
9 | CO[C@H]1C[C@@H](N[C@H]2CCc3ccc(-c4cnc5[nH]nc(-c6ccc(-c7ncccc7C)cn6)c5c4)cc3CC2)C1 [Example 108, (7S)-2-(3-{3-Methyl-[2,3′-bipyridin]-6′-yl}-1H-pyrazolo[3,4-b]pyridin-5-yl)-N-[cis-3-methoxycyclobutyl]-6,7,8,9-tetrahydro-5H-benzo[7]annulen-7-amine] | < 100 nM | < 100 nM
10 | Cc1cccnc1-c1ccc(-c2c[nH]c3ncc(-c4ccc5c(c4)CC[C@@H](N4C6COCC4C6)CC5)cc23)c(F)c1 [Example 153, 6-[(7S)-2-{3-[2-Fluoro-4-(3-methylpyridin-2-yl)phenyl]-1H-pyrrolo[2,3-b]pyridin-5-yl}-6,7,8,9-tetrahydro-5H-benzo[7]annulen-7-yl]-3-oxa-6-azabicyclo[3.1.1]heptane] | < 100 nM | < 100 nM
11 | Cc1ccc(C)c(-c2ccc(-c3n[nH]c4ncc(-c5ccc6c(c5)CC[C@@H](N5C[C@@H]7C[C@H]5CO7)CC6)cc34)cc2)n1 [Example 141, (1S,4S)-5-[(7S)-2-{3-[4-(3,6-Dimethylpyridin-2-yl)phenyl]-1H-pyrazolo[3,4-b]pyridin-5-yl}-6,7,8,9-tetrahydro-5H-benzo[7]annulen-7-yl]-2-oxa-5-azabicyclo[2.2.1]heptane] | < 100 nM | < 100 nM
12 | Cc1cccnc1-c1ccnc(-c2c[nH]c3ncc(-c4ccc5c(c4)CC[C@@H](N4C6COCC4C6)CC5)cc23)c1 [Example 83, 3-Methyl-2′-{5-[(7S)-7-{3-oxa-6-azabicyclo[3.1.1]heptan-6-yl}-6,7,8,9-tetrahydro-5H-benzo[7]annulen-2-yl]-1H-pyrrolo[2,3-b]pyridin-3-yl}-2,4′-bipyridine] | < 100 nM | < 100 nM
13 | Cc1cc(C)c(-c2ccc(-c3c[nH]c4ncc(-c5ccc6c(c5)CC[C@@H](N5C7COCC5C7)CC6)cc34)cc2)cn1 [Example 196, 6-[(7S)-2-{3-[4-(4,6-Dimethylpyridin-3-yl)phenyl]-1H-pyrrolo[2,3-b]pyridin-5-yl}-6,7,8,9-tetrahydro-5H-benzo[7]annulen-7-yl]-3-oxa-6-azabicyclo[3.1.1]heptane] | 100 to 1000 nM | < 100 nM
14 | Cc1ccc(C)c(-c2ccc(-c3c[nH]c4ncc(-c5ccc6c(c5)CC[C@@](C)(N5CCC[C@H]5C)CC6)cc34)cc2)n1 [Example 147, 3,6-Dimethyl-2-(4-{5-[(7S)-7-methyl-7-[(2R)-2-methylpyrrolidin-1-yl]-6,7,8,9-tetrahydro-5H-benzo[7]annulen-2-yl]-1H-pyrrolo[2,3-b]pyridin-3-yl}phenyl)pyridine] | < 100 nM | < 100 nM
